Here are results for 18 compounds from US20250368624A1, “M24B AMINOPEPTIDASE INHIBITORS FOR CARD8 INFLAMMASOME ACTIVATION” (Memorial Sloan-Kettering Cancer Center, priority 2022, published 2025).

Where only a bound is given, the exact number is not on record here.

For one data set, the target named is recombinant human PEPD (Homo sapiens (Human), UniProt P12955). The experiment in a line: PEPD substrate assay (Ala-Pro cleavage, L-alanine assay kit). To be noted: for IC50: 50 nM recombinant human PEPD, Ala-Pro 40 μM, 25° C. It counts as biochemical. As to the method: Protein purification. Human prolidase (PEPD) was generated and purified. XPNPEP1 in pET15-b containing a 6× His tag was expressed in E. coli Rosetta DE3 cells.
recombinant human PEPD, sequence (P12955 whole entry): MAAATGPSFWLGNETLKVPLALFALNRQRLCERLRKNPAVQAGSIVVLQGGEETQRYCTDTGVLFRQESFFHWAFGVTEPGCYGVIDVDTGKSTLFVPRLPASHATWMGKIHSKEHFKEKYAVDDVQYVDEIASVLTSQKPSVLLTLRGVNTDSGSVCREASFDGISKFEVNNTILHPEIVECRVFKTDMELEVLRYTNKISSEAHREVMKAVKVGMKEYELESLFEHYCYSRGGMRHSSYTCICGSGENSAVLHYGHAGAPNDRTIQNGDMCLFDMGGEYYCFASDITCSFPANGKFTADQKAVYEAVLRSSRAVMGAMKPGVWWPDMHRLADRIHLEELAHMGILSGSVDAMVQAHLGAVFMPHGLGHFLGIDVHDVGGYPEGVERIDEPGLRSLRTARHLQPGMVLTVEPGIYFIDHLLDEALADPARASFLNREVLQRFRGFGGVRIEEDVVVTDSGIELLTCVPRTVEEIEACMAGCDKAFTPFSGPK
Substrate assays. For the PEPD assay, a solution of substrate (Ala-Pro) was prepared in DMSO. 24 μL of 50 nM recombinant human PEPD were added to a 384-well, black, clear-bottom plate (Corning) with 1 μL dipeptide Ala-Pro (final conc. 40 μM). […] For the AMC reporter assays, experiments were performed with cell lysates. 5 μL solution of substrate (2.5 mM Ala-AMC) was added the mixture of 10 μL HEK293T cell lysates (2.5 mg/ml) and 10 μL of indicated compounds in a 384-well, black, clear-bottom plate (Corning) to initiate the reaction. Substrate cleavage was measured as increasing fluorescence signal (Ex/Em: 380/460 nm) recorded at 25° C. for 20 mins. […] H-Lys(abz)-Pro-Pro-pNA substrate was added to a final concentration of 100 μM, and fluorescence was monitored (Ex/Em: 320/410) for 60 mins.

In another data set the test system is MV4;11 CASP1-/- cells. Description: CellTiter-Glo cell viability, CASP1-/- MV4;11 cells. The format is cell-based. Conditions: 24 h, CTG; for CASP1-independent cell death: WT and CASP1-/- MV4;11 cells. As to the method:
Cloning. CASP1^−/− MV4;11 cells^12; CARD8^−/− MV4;11, THP-1, OCI-AML2 cells^14; DPP8/9^−/− THP-1^12; PEPD^−/−, XPNPEP1^−/−, PEPD XPNPEP1^−/− THP-1 cells were generated. Plasmids for CARD8 variants, CASP1, GSDMD, dTAG-CARD8^ZUC were cloned as described previously (Hollingsworth et al., 2021; Johnson et al., 2018; Sharif et al., 2021).
(§1) CellTiter-Glo cell viability and CytoTox-Fluor cell death assays. Cells were plated (2,000 cells per well) in white, 384-well clear-bottom plates (Corning) using an EL406 Microplate Washer/Dispenser (BioTek) in 25 μL final volume of medium. To the cell plates were added compounds at different concentrations using a pintool (CyBio) and the plates were allowed to incubate in the incubator. After incubation for indicated times, CytoTox-Fluor reagent (Promega, G9262) was added according to the manufacturer's protocol. The assay plates were then incubated for another 30 min before fluorescence was recorded using a Cytation 5 Cell Imaging Multi-Mode Reader (BioTek). Next, CellTiter-Glo reagent (Promega, G7573) was subsequently added to the assay plates following the manufacturer's protocol. Assay plates were shaken on an orbital shaker for 2 min and incubated at 25° C. for 10 min. Luminescence was then read using a Cytation 5 Cell Imaging Multi-Mode Reader (BioTek).
A general note: In ATP-based viability assays light output follows the ATP content of the culture.

The subject of a further data set is MV4;11 WT cells. The experiment in a line: CellTiter-Glo cell viability, WT MV4;11 cells. The format is cell-based. To be noted: for IC50 / cytotoxicity to MV4;11 cells (in words): 24 h, CTG. As to the method:
as §1

The next data set has as its target XPNPEP1 (Homo sapiens (Human), UniProt Q9NQW7). Description: XPNPEP1 substrate assay (H-Lys(abz)-Pro-Pro-pNA). Conditions: for IC50: XPNPEP1 3.5 nM, substrate 100 μM, 60 mins. The format is biochemical. As to the method:
Protein purification. Human prolidase (PEPD) was generated and purified. XPNPEP1 in pET15-b containing a 6× His tag was expressed in E. coli Rosetta DE3 cells. Cells were induced with IPTG for 16 h at 37° C., pelleted and lysed in buffer A (20 mM Tris-HCl (pH 7.9), 500 mM NaCl, and 10% (v/v) glycerol) by sonication. Affinity purification chromatography was performed using TALON resin and according to previously published protocols (Li et al., 2008).
Substrate assays. For the PEPD assay, a solution of substrate (Ala-Pro) was prepared in DMSO. 24 μL of 50 nM recombinant human PEPD were added to a 384-well, black, clear-bottom plate (Corning) with 1 μL dipeptide Ala-Pro (final conc. 40 μM). Alanine liberated was measured as increasing fluorescence signal (Resorufin, Ex/Em: 535/587 nm) recorded at 25° C. using an L-alanine assay kit (Abcam, ab83394) at 25° C. according to manufacturer's instructions. For the AMC reporter assays, experiments were performed with cell lysates. 5 μL solution of substrate (2.5 mM Ala-AMC) was added the mixture of 10 μL HEK293T cell lysates (2.5 mg/ml) and 10 μL of indicated compounds in a 384-well, black, clear-bottom plate (Corning) to initiate the reaction. Substrate cleavage was measured as increasing fluorescence signal (Ex/Em: 380/460 nm) recorded at 25° C. for 20 mins. For XPNPEP1 enzymes (XPNPEP1 3.5 nM) were plated on a black 384-well clear bottom plate and treated with the indicated doses of compounds. H-Lys(abz)-Pro-Pro-pNA substrate was added to a final concentration of 100 μM, and fluorescence was monitored (Ex/Em: 320/410) for 60 mins.

XPNPEP1, sequence (Q9NQW7 whole entry): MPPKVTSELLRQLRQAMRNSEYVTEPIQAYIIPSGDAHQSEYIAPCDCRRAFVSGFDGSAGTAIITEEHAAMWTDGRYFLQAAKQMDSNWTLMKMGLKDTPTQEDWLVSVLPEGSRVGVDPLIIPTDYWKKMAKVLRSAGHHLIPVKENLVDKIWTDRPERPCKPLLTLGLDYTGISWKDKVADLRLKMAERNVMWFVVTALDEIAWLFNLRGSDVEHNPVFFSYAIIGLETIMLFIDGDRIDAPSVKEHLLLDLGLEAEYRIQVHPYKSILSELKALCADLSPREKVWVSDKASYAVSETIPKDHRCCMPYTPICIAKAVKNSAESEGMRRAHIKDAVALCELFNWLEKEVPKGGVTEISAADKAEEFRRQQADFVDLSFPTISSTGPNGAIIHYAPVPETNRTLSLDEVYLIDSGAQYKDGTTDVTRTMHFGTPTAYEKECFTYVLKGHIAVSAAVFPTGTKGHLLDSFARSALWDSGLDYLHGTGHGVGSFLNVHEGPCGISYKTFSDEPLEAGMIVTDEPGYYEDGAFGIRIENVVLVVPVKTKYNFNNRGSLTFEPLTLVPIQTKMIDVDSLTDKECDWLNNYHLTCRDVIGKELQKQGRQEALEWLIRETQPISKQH

What is called IC50 is the concentration that inhibits the measured activity by half. Turning to `COC(=O)[C@H](Cc1ccccc1)NC(=O)[C@@H]1CCCN1C(=O)[C@@H](O)[C@H](N)CC(C)C` [CQ79, Methyl ((2S,3R)-3-amino-2-hydroxy-5-methylhexanoyl)-L-prolyl-L-phenylalaninate], the IC50 on recombinant human PEPD was 0.72 µM; in the data set on MV4;11 CASP1-/- cells (Homo sapiens, MV4-11) it was more than 20 µM; in the data set on MV4;11 WT cells (Homo sapiens, MV4-11) it was 0.66 µM; against XPNPEP1, 48 µM.

With `COC(=O)[C@@H]1CCCN1C(=O)[C@@H](O)[C@H](N)C12CC3CC(CC(C3)C1)C2` [CQ47, Methyl ((2S,3R)-3-(adamantan-1-yl)-3-amino-2-hydroxypropanoyl)-L-prolinate], the results for the IC50 at recombinant human PEPD and against XPNPEP1 were 12 µM and 33 µM, respectively. Further, the “cytotoxicity to MV4;11 cells (in words)” value in the data set with MV4;11 WT cells was “almost completely inactive”.

`C[C@H](NC(=O)[C@@H]1CCCN1C(=O)[C@@H]1CCCN1C(=O)[C@@H](O)[C@H](N)Cc1ccccc1)C(N)=O` [Apstatin, apstatin, reference compound]: the IC50 in the data set on MV4;11 CASP1-/- cells was more than 20 µM; in the data set on MV4;11 WT cells, more than 20 µM; against XPNPEP1, 18 µM. In addition, the “cytotoxicity to MV4;11 cells (in words)” value with MV4;11 WT cells was “not cytotoxic at all”.

As to `CC(C)C[C@@H](N)[C@H](O)C(=O)N1CCC[C@H]1c1nnn[nH]1` [CQ99, (2S,3R)-1-((S)-2-(1H-tetrazol-5-yl)pyrrolidin-1-yl)-3-amino-2-hydroxy-5-methylhexan-1-one], the IC50 on recombinant human PEPD amounted to 6.2 µM; against XPNPEP1 it was 67 µM. In addition, in the data set with MV4;11 WT cells, the “cytotoxicity to MV4;11 cells (in words)” value was “inactive in cells”.

Turning to `CC(C)C[C@@H](N)[C@H](O)C(=O)N1CCC[C@H]1C(N)=O` [CQ49, (S)-1-((2S,3R)-3-amino-2-hydroxy-5-methylhexanoyl)pyrrolidine-2-carboxamide], the IC50 at recombinant human PEPD is 0.28 µM; against XPNPEP1, 53 µM. Moreover, the “overall activity (PEPD/XPNPEP1 inhibition and cytotoxicity, Table 6 and FIG. 2), in words” value with MV4;11 WT cells is “retained similar PEPD/XPNPEP1 inhibition and cytotoxicity as CQ31”.

Consider `CC(C)C[C@@H](N)[C@H](O)C(=O)N1CCC[C@H]1C(=O)OC1CCCC1` [CQ94, Cyclopentyl ((2S,3R)-3-amino-2-hydroxy-5-methylhexanoyl)-L-prolinate], for which the “PEPD inhibition (in words)” value on recombinant human PEPD was “inhibited PEPD and XPNPEP1 inhibitors similarly”. In the data set on MV4;11 WT cells, the “cytotoxicity to MV4;11 cells (in words)” value is “slightly more toxic”. The “XPNPEP1 inhibition (in words)” value on XPNPEP1 is “inhibited PEPD and XPNPEP1 inhibitors similarly”.

Take `CC[C@H](C)[C@H](NC(=O)[C@@H]1CCCN1C(=O)[C@@H](O)[C@H](N)CC(C)C)C(=O)OC` [CQ81, Methyl ((2S,3R)-3-amino-2-hydroxy-5-methylhexanoyl)-L-prolyl-L-isoleucinate]: the IC50 was 0.84 µM on recombinant human PEPD; more than 20 µM in the data set with MV4;11 CASP1-/- cells (Homo sapiens, MV4-11); 0.6 µM with MV4;11 WT cells (Homo sapiens, MV4-11); 23 µM on XPNPEP1.

As to `COC(=O)[C@@H]1CCCN1C(=O)[C@@H](O)[C@H](N)CCCCO` [CQ75], on recombinant human PEPD, the “PEPD inhibition (in words)” value was “retained PEPD inhibition” and the IC50 was 0.3 µM. In addition, the “cytotoxicity to MV4;11 cells (in words)” value in the data set on MV4;11 WT cells was “lost cytotoxicity”. The compound also displayed an IC50 against XPNPEP1 of 115 µM.

Turning to `CC(C)C[C@@H](N)[C@H](O)C(=O)N1CCCC1` [CQ76, (2S,3R)-3-amino-2-hydroxy-5-methyl-1-(pyrrolidin-1-yl)hexan-1-one], the IC50 at recombinant human PEPD is more than 100 µM; against XPNPEP1, 38 µM. In addition, in the data set on MV4;11 WT cells, the “overall activity (PEPD/XPNPEP1 inhibition and cytotoxicity, Table 6 and FIG. 2), in words” value is reported as “abrogated all activity”.

Turning to `COC(=O)[C@H](CC(C)C)NC(=O)[C@@H](O)[C@H](N)Cc1ccccc1` [MeBs, bestatin methyl ester, reference compound], the CASP1-independent cell death result with MV4;11 CASP1-/- cells is reported as “CASP1-independent cell death”.

On to `COC(=O)[C@H](C)NC(=O)[C@@H]1CCCN1C(=O)[C@@H]1CCCN1C(=O)[C@@H](O)[C@H](N)CC(C)C` [CQ50, Methyl ((2S,3R)-3-amino-2-hydroxy-5-methylhexanoyl)-L-prolyl-L-prolyl-L-alaninate], for which the IC50 was 11 µM at recombinant human PEPD; more than 100 µM in the data set on MV4;11 CASP1-/- cells (Homo sapiens, MV4-11); 35 µM in the data set on MV4;11 WT cells (Homo sapiens, MV4-11); 8.1 µM on XPNPEP1.

For `CONC(=O)[C@@H]1CCCN1C(=O)[C@@H](O)[C@H](N)CC(C)C` [CQ55, (S)-1-((2S,3R)-3-amino-2-hydroxy-5-methylhexanoyl)-N-methoxypyrrolidine-2-carboxamide], the IC50 on recombinant human PEPD is 1.6 µM; at XPNPEP1, 303 µM. The “cytotoxicity to MV4;11 cells (in words)” value with MV4;11 WT cells was “inactive in cells”.

`COC(=O)[C@H](CC(C)C)NC(=O)[C@@H](O)[C@H](N)CC(C)C` [CQ52, Methyl ((2S,3R)-3-amino-2-hydroxy-5-methylhexanoyl)-L-leucinate]: on recombinant human PEPD, the “PEPD inhibition (in words)” value is “very weak PEPD and XPNPEP1 inhibitors”; the IC50 came out at 51 µM. For the same compound, in the data set with MV4;11 CASP1-/- cells, the CASP1-independent cell death entry is “triggered CASP1-independent cell death”. Moreover, on XPNPEP1, the “XPNPEP1 inhibition (in words)” value was “very weak PEPD and XPNPEP1 inhibitors”; the IC50 turned out to be 57 µM.

Regarding `COC(=O)[C@@H]1CCCN1C(=O)[C@@H](O)[C@H](N)C1CC1` [CQ62, Methyl ((2S,3R)-3-amino-3-cyclopropyl-2-hydroxypropanoyl)-L-prolinate], the IC50 on recombinant human PEPD was 4.2 µM; at XPNPEP1, 66 µM. The “cytotoxicity to MV4;11 cells (in words)” value in the data set with MV4;11 WT cells was “almost completely inactive”.

As for `CC(C)CCNC(=O)[C@@H]1CCCN1C(=O)[C@@H](O)[C@H](N)CC(C)C` [CQ95, (S)-1-((2S,3R)-3-amino-2-hydroxy-5-methylhexanoyl)-N-isopentylpyrrolidine-2-carboxamide], the IC50 on recombinant human PEPD came out at 0.29 µM; against XPNPEP1, 140 µM. Besides, the “overall activity (PEPD/XPNPEP1 inhibition and cytotoxicity, Table 6 and FIG. 2), in words” value in the data set with MV4;11 WT cells is “retained similar PEPD/XPNPEP1 inhibition and cytotoxicity as CQ31”.

For `COC(=O)[C@@H]1C[C@H](O)CN1C(=O)[C@@H](O)[C@H](N)CC(C)C` [CQ39, Methyl (2S,4S)-1-((2S,3R)-3-amino-2-hydroxy-5-methylhexanoyl)-4-hydroxypyrrolidine-2-carboxylate], the IC50 on recombinant human PEPD is more than 100 µM; against XPNPEP1 it was 190 µM. Moreover, the “overall activity (PEPD/XPNPEP1 inhibition and cytotoxicity, Table 6 and FIG. 2), in words” value with MV4;11 WT cells is “completely inactive”.

Take `CC(C)C[C@@H](N)[C@H](O)C(=O)N1CCC[C@H]1CNS(C)(=O)=O` [CQ53, N—(((S)-1-((2S,3R)-3-amino-2-hydroxy-5-methylhexanoyl)pyrrolidin-2-yl)methyl)methanesulfon-amide]: the results for the IC50 on recombinant human PEPD and on XPNPEP1 were more than 100 µM and 12 µM, respectively. The “cytotoxicity to MV4;11 cells (in words)” value in the data set with MV4;11 WT cells was “inactive in cells”.

Turning to `COC(=O)[C@H](Cc1ccccc1)NC(=O)[C@@H](O)[C@H](N)CC(C)C` [CQ72, Methyl ((2S,3R)-3-amino-2-hydroxy-5-methylhexanoyl)-L-phenylalaninate], on recombinant human PEPD, the “PEPD inhibition (in words)” value was “very weak PEPD and XPNPEP1 inhibitors”; the IC50 is more than 100 µM. Also, the CASP1-independent cell death result with MV4;11 CASP1-/- cells was “triggered CASP1-independent cell death”. In addition, on XPNPEP1, the “XPNPEP1 inhibition (in words)” value is “very weak PEPD and XPNPEP1 inhibitors”; the IC50 stood at 96 µM.
